This passage reports IC50 results from patent US8809372B2, “Pyridine derivatives” (Endo Pharmaceuticals, Inc., priority 2011, dated 2014).

The target of test [1] is T1, human CYP17 in H295R adrenocortical carcinoma cells (Homo sapiens, UniProt P05093).
T1 construct: H295R Adrenocortical carcinoma cells [NCI-H295A, ATCC Number CRL-2128, American Type Culture Collection; host or cells: H295R adrenocortical carcinoma cells
T1 sequence (P05093 1-508): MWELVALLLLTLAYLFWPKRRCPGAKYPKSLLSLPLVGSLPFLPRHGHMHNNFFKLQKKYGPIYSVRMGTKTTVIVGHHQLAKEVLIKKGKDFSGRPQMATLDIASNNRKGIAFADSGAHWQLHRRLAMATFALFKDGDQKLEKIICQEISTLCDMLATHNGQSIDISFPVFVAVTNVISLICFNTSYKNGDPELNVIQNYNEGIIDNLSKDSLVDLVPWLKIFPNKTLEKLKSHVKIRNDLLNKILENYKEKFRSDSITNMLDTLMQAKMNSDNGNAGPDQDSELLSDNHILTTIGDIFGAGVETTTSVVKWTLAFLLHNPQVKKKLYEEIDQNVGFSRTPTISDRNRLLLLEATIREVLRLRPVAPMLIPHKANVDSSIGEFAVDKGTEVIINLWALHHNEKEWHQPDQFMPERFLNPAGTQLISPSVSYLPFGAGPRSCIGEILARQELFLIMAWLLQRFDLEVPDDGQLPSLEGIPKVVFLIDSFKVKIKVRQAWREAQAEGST
Briefly: Cell-based human CYP17 inhibition assay, H295R cells. The settings on record: 16 hours, read-out: CYP17 (human H295R adrenal cells). The method, boiled down:
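H295R cells or LNCaP cells stably transfected with full-length human CYP17A1 (30,000/well) incubated 16 h at 37 °C with ³H-17α-hydroxypregnenolone and compound (top 10 μM, 3-fold dilutions, up to 10 concentrations). Medium chloroform-extracted and charcoal-treated; aqueous-phase radioactivity counted by scintillation.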

In test [2] the target is T2, rat CYP17 (rat testicular microsomes) (Rattus norvegicus, UniProt P11715).
T2 construct: Rat testis tissue was collected and disrupted with 30 strokes of a glass homogenizer; from tissue; host or cells: rat testis (microsomes)
T2 sequence (P11715 1-507): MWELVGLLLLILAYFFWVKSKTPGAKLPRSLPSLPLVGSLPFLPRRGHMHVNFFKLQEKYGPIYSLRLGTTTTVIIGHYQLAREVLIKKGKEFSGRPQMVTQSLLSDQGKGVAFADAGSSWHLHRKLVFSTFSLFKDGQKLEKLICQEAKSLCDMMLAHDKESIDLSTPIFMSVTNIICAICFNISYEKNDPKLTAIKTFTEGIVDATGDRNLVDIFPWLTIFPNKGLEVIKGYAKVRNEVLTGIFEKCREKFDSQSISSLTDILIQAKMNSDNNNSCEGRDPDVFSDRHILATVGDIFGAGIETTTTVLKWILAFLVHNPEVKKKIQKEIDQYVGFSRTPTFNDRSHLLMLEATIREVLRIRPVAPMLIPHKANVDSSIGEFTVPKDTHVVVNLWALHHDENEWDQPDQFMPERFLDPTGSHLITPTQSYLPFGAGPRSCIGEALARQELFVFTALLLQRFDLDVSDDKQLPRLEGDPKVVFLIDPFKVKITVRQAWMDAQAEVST
Kind of test: CYP17 inhibition assay in rat testicular microsomes. Type of test: biochemical. The method, boiled down:
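Rat testicular microsomes (150–160 μg) or yeast microsomes expressing human CYP17 (1.7 pmol) react with ³H-17α-hydroxypregnenolone (1 μCi/reaction) and 325 μM NADPH in potassium phosphate buffer, pH 7.4. Compound is pre-incubated with substrate for 15 min, then the reaction runs 60 min at 37 °C. After chloroform extraction and charcoal treatment, aqueous radioactivity is measured by scintillation counting.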

For `OC1(c2cnc(-c3ccc(F)cc3)s2)CCc2cnccc21` (centres unmarked) [Example 59, 5-(2-(4-fluorophenyl)thiazol-5-yl)-6,7-dihydro-5H-cyclopenta[c]pyridin-5-ol], the results for the IC50 in test [1] and in test [2] were 0.201 to 10 µM and 0.05 to 0.2 µM, respectively.

With `OC1(c2cnc(-c3ccc(F)cc3)s2)CCCc2cnccc21` (centres unmarked) [Example 25, 5-(2-(4-fluorophenyl)thiazol-5-yl)-5,6,7,8-tetrahydroisoquinolin-5-ol], the IC50 in test [1] was 0.201 to 10 µM; in test [2] it was less than 0.05 µM.

As for `CC(O)(c1ccncc1)c1cnc(-c2ccc(Cl)cc2)s1` (centres unmarked) [Example 28, 1-(2-(4-Chlorophenyl)thiazol-5-yl)-1-(pyridin-4-yl)ethanol], the IC50 in test [1] and in test [2] was less than 0.05 µM each time.

Turning to `CCCCC(=O)c1ccc(-c2ccc(C(C)(O)c3ccncc3)nc2)cn1` (centres unmarked) [Example 62, 1-(6′-(1-hydroxy-1-(pyridin-4-yl)ethyl)-[3,3′-bipyridin]-6-yl)pentan-1-one], the IC50 is 0.201 to 10 µM in test [1] and 0.05 to 0.2 µM in test [2].

Consider `OC(c1ccncc1)c1cnc(-c2ccc(F)cc2)s1` (centres unmarked) [Example 24, [2-(4-fluorophenyl)-1,3-thiazol-5-yl](pyridin-4-yl)methanol], for which the IC50 in test [1] is 0.05 to 0.2 µM; in test [2] it was less than 0.05 µM.

In the case of `CC(O)(c1ccncc1)c1cnc(-c2ccc(S(C)(=O)=O)cc2)s1` (centres unmarked) [Example 45, 1-(2-(4-(methylsulfonyl)-phenyl)thiazol-5-yl)-1-(pyridin-4-yl)ethanol], the IC50 in test [1] lay in the range of 0.201 to 10 µM; in test [2], 0.05 to 0.2 µM.

Take `Cn1cc(-c2ccc(C(C)(O)c3ccncc3)s2)ccc1=O` (single isomer, unassigned; (+)) [Example 16, (+)-5-(5-(1-hydroxy-1-(pyridin-4-yl)ethyl)thiophen-2-yl)-1-methylpyridin-2(1H)-one]: the IC50 in test [1] and in test [2] was 0.05 to 0.2 µM each time.

As to `CC(O)(c1ccncc1)c1ccc(-c2ccc(F)cc2)o1` (centres unmarked) [Example 37, 1-(5-(4-fluorophenyl)furan-2-yl)-1-(pyridin-4-yl)ethanol], the IC50 in test [1] and in test [2] was 0.05 to 0.2 µM throughout.

Turning to `CCC(O)(c1ccncc1)c1nnc(-c2ccc(F)cc2)s1` (centres unmarked) [Example 21, 1-(5-(4-fluorophenyl)-1,3,4-thiadiazol-2-yl)-1-(pyridin-4-yl)propan-1-ol], the IC50 in test [1] is 0.201 to 10 µM; in test [2], less than 0.05 µM.

With `CC(O)(c1ccncc1)c1cnc(-c2ccc(C(F)(F)F)cc2)s1` (centres unmarked) [Example 26, 1-(Pyridin-4-yl)-1-(2-(4-(trifluoromethyl)phenyl)thiazol-5-yl)ethanol], the IC50 in test [1] was 0.05 to 0.2 µM; in test [2], less than 0.05 µM.
